# According to patent US20050233403A1, “Human adipocyte cell populations and methods for identifying modulators of same” (AdipoGenix, Inc., priority 2002, published 2005):
# Like-named read-outs stand apart in the source and are kept apart here.
# Tests used:
# 3T3-L1 cells [1] = assay: Fluorescent fatty acid uptake by 3T3-L1 cells, 96-well format; assay type: cell-based; conditions: for Uptake by 3T3-L1 cells, Day 9 / Uptake by 3T3-L1 cells, Day 0: 10 μM dye, one hour, means ± SEM; for Uptake by 3T3-L1 cells, Day 9: cells 9 days in differentiation medium; for Uptake by 3T3-L1 cells, Day 0: cells not incubated in differentiation medium; for Fatty acid uptake, Fluor. Units: dye 120 minutes
# Experimental: To establish a rapid, 96 well format, automated assay of fatty acid uptake, the reproducibility and signal-to-noise ratios of four different fatty acid-fluorescent dye conjugates in undifferentiated and differentiated preadipocytes was determined. 3T3-L1 cells were used to compare the fluorescent dyes, the best of which was then selected for the human preadipocyte system. The fluorescent fatty acids tested were
# These fatty acid-dye conjugates were chosen because their final size is close to that of physiologically relevant C:18 fatty acids, the most abundant in human fat cells and in the diet (Kokatnur, M., et al.(1979) Am. J. Clin. Nutr. 32:2198-205; Llado, I., et al. (1996) Biochem. Mol. Biol. Int. 40:295-303)). Furthermore, these dyes are vital, allowing the cells to be re-used in additional assays. 3T3-L1 cells were seeded in the wells of a 96-well plate at a density of 3.3×10^3 cells/cm^2 (1×10^3 cells/well). After reaching confluence, cells were exposed to differentiation medium for 0 and 9 days. The wells were washed with assay buffer (150 mM […], 10 mM NaPO4; 3 mM KCl; 10 μM CaCl2; 1 mM MgCl2; 25 mM glucose; pH 7.4) containing 20 μM fatty acid-free BSA, pre-warmed to 37° C. The fluorescent fatty acids were added in assay buffer to a final concentration of 10 μM, and incubated at 37° C. for one hour. Wells were washed with assay buffer containing 0.1% BSA.
# Table 15 indicates the results of experiments in which 3T3-L1 cells were exposed to a differentiation inducing medium from day 0. Fatty acid uptake was assayed by exposing cells to BODPY for 120 minutes at each of the times represented.
# 3T3-L1 cells [2] = assay: as above; assay type: cell-based; conditions: for BODIPY uptake, Day 0 / BODIPY uptake, Day 8: 10 μM
# human preadipocytes [3] = assay: Fatty acid uptake by human preadipocytes exposed to differentiation medium (fatty acid-based cellulomic assay); assay type: cell-based; conditions: 10 d, relative to control medium, means of 4 studies
# Experimental: The following example describes the optimization of methods used to differentiate human preadipocytes. The example details a thorough analyses of known and potential agents and conditions for promoting human preadipocyte differentiation. Experiments were performed with abdominal subcutaneous as well as mesenteric and omental preadipocytes. A variety of conditions were tested using the fatty acid-based cellulomic assay described in Example 4. Optimization of differentiation conditions enhances the usefulness of human preadipocytes in screening for modulators (e.g., inhibitors) of obesity.
# (§1) The fatty acid uptake ratio was expressed as a function of fatty acid uptake in control medium. % Diff. represents the proportion of cells that developed doubly refractile lipid droplets visible by phase contrast microscopy by observers unaware of culture conditions. Means of 4 studies are shown. CoV was also determined (not shown) to monitor assay reliability.
# human preadipocytes [4] = assay: Extent of differentiation: % cells with doubly refractile lipid droplets by phase contrast microscopy; assay type: cell-based; conditions: 10 d
# Experimental: as §1
# [5] = tested on: human subcutaneous adipocytes; conditions: positive control
# Experimental: (§2) Cells are 10 thawed in PM and grown in tissue culture flasks under standard incubation conditions (5% carbon dioxide, 37° C.). Cells are passaged 1:2 upon 80-100% confluency. Cells are passaged up to ten times to produce enough cells for primary screening. • C. Cells are seeded and differentiated, as described in the previous section, in 384-well plates. • D. On day 6 of preadipocyte differentiation, the DM is first changed as described in the previous section. Cells are then incubated in a replicate manner (i.e., in triplicate) with compounds. […] Compounds are further diluted in a PBS or similarly buffered solution in the absence or presence of albumin to aid compound solubility. […] Positive control cells are treated with a compound or reagent known to modulate their ability to take up and/or accumulate fatty acids. […] The FA* currently used is 4,4-difluoro-5-methyl-4-bora-3a,4a-diaza-s-indacene-3-dodecanoic acid (C1-BODIPY® 500/510 C12, catalog # D-3823, Molecular Probes, Eugene, Oreg.). […] Cells are incubated for four hours at 5% carbon dioxide/37° C., then post-washed with FAB, preferably three times, to remove unincorporated FA*. Cellular fluorescence of triglyceride droplets that have incorporated FA* is measured on a microplate reader. Efficacy of compounds on inhibiting FA* accumulation is determined by: % Efficacy=100−(sample fluorescence/negative control fluorescence×100). • H. Subsequent determination of compound toxicity on cells is measured by incubating cells (after the post-wash and FA* reading) with an aliquot of Alamar Blue (catalog # DAL-1100, BioSource International), a fluorescent dye that is reduced via cellular metabolism. After incubation of cells with the dye for up to four hours, fluorescence of the reduced compound is read. Alternatively, compound toxicity on cells can be determined in an experiment separate from the primary screen uptake/accumulation assay. Toxicity of compounds is determined by: % Toxicity =100−(sample fluorescence/negative control fluorescence×100).
# (§3) Primary screens for inhibition of fatty acid uptake are carried out using human subcutaneous preadipocytes in each of two assay formats. In a first assay format, cells are exposed to natural product and synthetic library components early in the differentiation process (days 1-3 following addition of differentiation medium). In a second assay format, cells are exposed to library components late in the process (days 7-10 following addition of differentiation medium), after at least 80% of cells have differentiated.
# (§4) Subcutaneous human preadipocytes (passage 3-5) are seeded in plating medium at 3.0×10^4 cells/cm^2 in 96-well or 384-well plates, giving 100% confluence upon adherence. […]
# [6] = tested on: human subcutaneous adipocytes; assay: cells; conditions: Adipocyte, read-out: % Efficacy (inhibition of FA* accumulation)
# Experimental: as §2, §3, §4
# [7] = tested on: differentiating adipocytes
# Experimental: The assay features differentiated human preadipocytes, but the procedure can be modified in a number of ways to discover novel compounds affecting the adipocytes of human and other species (i.e., rodent). For example, the day of compound addition during preadipocyte differentiation process can be changed as well as the incubation period. Similarly, the day of FA* addition, its type of fluorescent label and chain length, and its concentration and incubation time can be modified. • B. Up to five cell strains of frozen primary human subcutaneous preadipocytes (e.g., subcutaneous preadipocytes) are used, but this number can be increased as needed. Omental and mesenteric preadipocytes can be used in a similar manner. Cells are 10 thawed in PM and grown in tissue culture flasks under standard incubation conditions (5% carbon dioxide, 37° C.). Cells are passaged 1:2 upon 80-100% confluency. Cells are passaged up to ten times to produce enough cells for primary screening. • C. […] Cellular fluorescence of triglyceride droplets that have incorporated FA* is measured on a microplate reader. Efficacy of compounds on inhibiting FA* accumulation is determined by: % Efficacy=100−(sample fluorescence/negative control fluorescence×100). • H. Subsequent determination of compound toxicity on cells is measured by incubating cells (after the post-wash and FA* reading) with an aliquot of Alamar Blue (catalog # DAL-1100, BioSource International), a fluorescent dye that is reduced via cellular metabolism. After incubation of cells with the dye for up to four hours, fluorescence of the reduced compound is read. Alternatively, compound toxicity on cells can be determined in an experiment separate from the primary screen uptake/accumulation assay. Toxicity of compounds is determined by: % Toxicity =100−(sample fluorescence/negative control fluorescence×100).
# Subsequent determination of compound toxicity is measured by incubating cells with one tenth of total cell volume of Alamar Blue (an indicator of cellular metabolism) for up to four hours before measuring fluorescence of the reduced compound. […]
# [8] = Dex 10^−4 M in suboptimal differentiation medium
# [9] = Dex 10^−7 M in suboptimal differentiation medium
# [10] = Dex 10^−10 M in suboptimal differentiation medium
structure (smiles),measurement,setting,value
"CCCCCCC(C/C=C\CCCCCCCC(=O)O)OC(=O)c1c2ccccc2cc2ccccc12 (stereo not drawn) [12-AO, 12-(9-anthroyloxy) oleic acid]","Uptake by 3T3-L1 cells, Day 9",3T3-L1 cells [1],10960 ± 1172 Raw Fluorescent Units
same,"Uptake by 3T3-L1 cells, Day 0",3T3-L1 cells [1],3613 ± 160 Raw Fluorescent Units
"O=C(O)CCCCCCCCCCCCCCCOC(=O)c1c2ccccc2cc2ccccc12 [16-AP, 16-(9-anthroyloxy) palmitic acid]","Uptake by 3T3-L1 cells, Day 9",3T3-L1 cells [1],8528 ± 20 Raw Fluorescent Units
same,"Uptake by 3T3-L1 cells, Day 0",3T3-L1 cells [1],2944 ± 404 Raw Fluorescent Units
"CC1=[N+]2C(=Cc3ccc(CCCCCCCCCCCC(=O)O)n3[B-]2(F)F)C=C1 [BODIPY 500/510 C12, 4,4-difluoro-5-methyl-4-bora-3a,4a-diaza-s-indacene-3-dodecanoic acid]","BODIPY uptake, Day 0",3T3-L1 cells [2]; incubation 10 min,1290.263 rfu
same,"BODIPY uptake, Day 8",3T3-L1 cells [2]; incubation 10 min,1198.325 rfu
same,"BODIPY uptake, Day 0",3T3-L1 cells [2]; incubation 30 min,510.3125 rfu
same,"BODIPY uptake, Day 8",3T3-L1 cells [2]; incubation 30 min,18518.67 rfu
same,"BODIPY uptake, Day 0",3T3-L1 cells [2]; incubation 120 min,686.9375 rfu
same,"BODIPY uptake, Day 8",3T3-L1 cells [2]; incubation 120 min,46363 rfu
same,"BODIPY uptake, Day 0",3T3-L1 cells [2]; incubation 240 min,1104.125 rfu
same,"BODIPY uptake, Day 8",3T3-L1 cells [2]; incubation 240 min,49153.33 rfu
same,"Fatty acid uptake, Fluor. Units","3T3-L1 cells [2]; Day 8 in differentiation inducing medium, dye 120 minutes",18685 Fluor. Units
same,"Uptake by 3T3-L1 cells, Day 9",3T3-L1 cells [1],56869 ± 2093 Raw Fluorescent Units
same,"Uptake by 3T3-L1 cells, Day 0",3T3-L1 cells [1],404 ± 21 Raw Fluorescent Units
same,"Fatty acid uptake, Fluor. Units",3T3-L1 cells [1]; Day 0 in differentiation inducing medium,1166.67 Fluor. Units
same,"Fatty acid uptake, Fluor. Units",3T3-L1 cells [1]; Day 2 in differentiation inducing medium,5006.75 Fluor. Units
same,"Fatty acid uptake, Fluor. Units",3T3-L1 cells [1]; Day 4 in differentiation inducing medium,10884.5 Fluor. Units
same,"Fatty acid uptake, Fluor. Units",3T3-L1 cells [1]; Day 6 in differentiation inducing medium,15441.8 Fluor. Units
same,"Fatty acid uptake, Fluor. Units",3T3-L1 cells [1]; Day 10 in differentiation inducing medium,31645.8 Fluor. Units
same,"Fatty acid uptake, Fluor. Units",3T3-L1 cells [1]; Day 12 in differentiation inducing medium,37910 Fluor. Units
"O=C([O-])CCCCCCCCCCCc1ccc2n1[B-](F)(F)[N+]1=C(c3cccs3)C=CC1=C2.[H+] [BODIPY 558/568 C12, 4,4-difluoro-5-(2-thienyl) 1-4-bora-3a,4a-diaza-s-indacene-3-dodecanoic acid]","Uptake by 3T3-L1 cells, Day 9",3T3-L1 cells [1],3622 ± 641 Raw Fluorescent Units
same,"Uptake by 3T3-L1 cells, Day 0",3T3-L1 cells [1],116 ± 9 Raw Fluorescent Units
"C[C@@H]1C[C@H]2[C@@H]3CCC4=CC(=O)C=C[C@]4(C)[C@@]3(F)[C@@H](O)C[C@]2(C)[C@@]1(O)C(=O)CO [Dex, dexamethasone]",Uptake Ratio,human preadipocytes [3]; [8],5
same,Uptake Ratio,human preadipocytes [3]; [9],79
same,Uptake Ratio,human preadipocytes [3]; [10],49
same,% Diff.,human preadipocytes [4]; [8],30%
same,% Diff.,human preadipocytes [4]; [9],70%
same,% Diff.,human preadipocytes [4]; [10],60%
"N#CC(C#N)=NNc1ccc(OC(F)(F)F)cc1 [FCCP, carbonyl cyanide p-(trifluoromethoxy)-phenylhydrazone]",FA* uptake and/or accumulation,[5],inhibits FA* uptake and/or accumulation in a dose-responsive manner
same,Emax at 0.3 µM,[6],42%
same,Emax at 1 µM,[6],79%
same,Emax at 3 µM,[6],90%
same,% Toxicity,[7]; 0.3 μM,−1%
same,% Toxicity,[7]; 1 μM,−4%
same,% Toxicity,[7]; 3 μM,5%
